The assay concerns the target T1, SOD1^A123F (Homo sapiens, UniProt P00441, A124F).
T1 construct: His-tag (cleaved yes); made in house; host or cells: E. coli BL21-DE3
Kind of assay: MST binding assay, site-specific mutant SOD1^A123F. The following applies: PBS buffer, mutant 25 nM, PB 30.5 nM to 250 μM, 25 °C. The protocol: To further validate the binding of PB to SOD1, site-directed mutagenesis was performed for the interacting residues at the binding sites of PB. The point mutations generated on the SOD1 protein are K9F, G10P, L42R, and A123F. The MST assay was carried out on these mutants against PB (Fig 5). The dose-response curve with the highest signal-to-noise ratio, high response amplitude, and lowest error rate was selected for measuring the binding affinity (Kd) value. […] Binding at the electrostatic loop is affected majorly by mutating residues at A123 to phenylalanine and L42 to arginine. […] Taken together, the binding affinities of these mutants confirm the ligand bindings at these sites of SOD1 are specific.
Fig 5 MST interaction analysis of fluorescently labeled SOD1 mutants against PB. The binding of PB to fluorescently Cys-labeled SOD1- variants is quantified in PBS buffer. The concentration of PB varied from 30.5 nM to 250 μM, while the respective mutants were kept constant at 25 nM. MST experiments were conducted at 20% LED excitation and medium MST power at 25 °C. […] Error bars indicate the standard error of the mean, SEM (n = 3). […] The ligand PB is printed only in the titles of panels a-d, so the mutant names are used as the substance labels.
Binding studies were performed for SOD1^WT and the ligands using microscale thermophoresis (MST). […]

Entries after “also recorded” stand apart in the source; their conditions may differ.

T1 sequence (P00441 whole entry A124F): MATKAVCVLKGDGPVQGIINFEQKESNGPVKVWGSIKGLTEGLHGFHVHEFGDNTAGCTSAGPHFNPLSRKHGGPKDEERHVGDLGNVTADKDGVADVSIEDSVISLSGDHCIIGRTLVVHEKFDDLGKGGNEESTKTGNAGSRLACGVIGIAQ

With `CCCC[C@H](C)/C=C(C)/C=C/C(=O)O` [PB, (S, 2E, 4E)-4,6-dimethyldeca-2,4-dienoic acid], the “binding affinity Kd” value was “very weak binding; also recorded: weak-binding”.

The record behind these values is paper PMC10917278, “Structural insights into the modulation Of SOD1 aggregation By a fungal metabolite Phialomustin-B: Therapeutic potential in ALS” (PLOS ONE, 2024).
